The target in one experiment is T1, RARβ (Homo sapiens, UniProt P10826).
T1 construct: cloned receptor RAR molecules are first loaded with radiolabeled all-trans-retinoic acid
T1 sequence (P10826 1-455): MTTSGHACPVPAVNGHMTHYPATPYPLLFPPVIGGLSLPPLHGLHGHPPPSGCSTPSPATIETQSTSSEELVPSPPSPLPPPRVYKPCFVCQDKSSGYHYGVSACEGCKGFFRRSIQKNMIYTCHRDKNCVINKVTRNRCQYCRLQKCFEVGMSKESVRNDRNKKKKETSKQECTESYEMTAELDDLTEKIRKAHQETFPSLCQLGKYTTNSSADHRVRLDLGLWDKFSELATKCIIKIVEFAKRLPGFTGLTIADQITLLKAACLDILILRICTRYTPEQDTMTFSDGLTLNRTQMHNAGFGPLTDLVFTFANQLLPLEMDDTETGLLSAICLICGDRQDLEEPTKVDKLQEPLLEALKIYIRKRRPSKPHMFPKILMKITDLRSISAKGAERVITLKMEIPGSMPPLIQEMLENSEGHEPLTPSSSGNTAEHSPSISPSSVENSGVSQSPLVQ
The experiment in a line: displacement assay, agonist binding affinity. The note with it: read-out: Binding Affinities for RARβ. As for the experimental part:
(§1) Binding assays are performed using a classic competition assay format in which cloned receptor RAR molecules are first loaded with radiolabeled all-trans-retinoic acid […] and then the amount of radioactivity liberated with increasing concentration of test compound is measured.

For another experiment, the target named is T2, RARγ (Homo sapiens, UniProt P13631).
T2 sequence (P13631 1-454): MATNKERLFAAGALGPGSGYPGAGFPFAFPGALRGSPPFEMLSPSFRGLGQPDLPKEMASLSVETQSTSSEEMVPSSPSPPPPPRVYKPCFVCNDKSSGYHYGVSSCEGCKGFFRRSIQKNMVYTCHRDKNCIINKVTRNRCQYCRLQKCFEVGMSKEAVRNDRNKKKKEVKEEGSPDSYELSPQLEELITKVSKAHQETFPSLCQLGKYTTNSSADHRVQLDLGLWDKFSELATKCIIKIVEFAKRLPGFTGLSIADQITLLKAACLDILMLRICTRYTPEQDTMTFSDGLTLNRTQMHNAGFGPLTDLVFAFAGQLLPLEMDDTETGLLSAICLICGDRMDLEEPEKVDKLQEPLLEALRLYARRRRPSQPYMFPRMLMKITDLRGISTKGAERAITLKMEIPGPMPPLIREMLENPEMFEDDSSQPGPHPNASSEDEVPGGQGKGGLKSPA
As to the kind of experiment: displacement assay, agonist binding affinity. The note with it: read-out: Binding Affinities for RARγ. The protocol:
as §1

Another experiment concerns CD4+ T cells. As to the kind of experiment: in vivo T cell differentiation in mice (blood and spleen). The following applies: 100 μg every other day for 10 days. Set-up: species or system mouse. The protocol: To expand on the finding above, the in vivo effects of a RARα agonist on T cell differentiation was evaluated in a mouse model. Mice were treated with 100 μg of compound IRX5183 or an equivalent volume of DMSO (vehicle control) every other day for 10 days. Lymphocytes from the blood and spleen were then isolated and FoxP3 expression in CD4^+ T cells was assessed.

Experiment [1] deals with H929 cells and primary CD138+ MM cells. As to the kind of experiment: clonogenic or cellular recovery of MM cells after BTZ treatment. In kind it is cell-based, human. The following applies: stroma co-culture, 1 μM for 5 days, then BTZ 2.5 nM. As for the experimental part:
FIG. 4A-B depicts the clonogenic recovery (CFU) of H929 cells (FIG. 4A) or cellular recovery of primary CD138+ MM cells from 3 different patient samples (FIG. 4B). MM cells were treated with bortezomib (BTZ; 2.5 nM) for 48 hours after being incubated for 5 days either in the absence of stroma (Liquid), with or without the pan-RAR inhibitor AGN (1 μM), or in the presence of BM mesenchymal cells (Stroma), with or without the CYP26 inhibitor R115 (1 μM) or the CYP26-resistant retinoid IRX (1 μM). Clonogenic or cellular recovery was normalized to each condition in the absence of BTZ.
Coculture experiments. 24-well plates were coated with 0.1% gelatin in PBS for 30 min at 37° C. The gelatin solution was removed, and the stromal cells were cultured overnight at a density of 5×10^4 cells/well to obtain a confluent monolayer. At that time, MM cell lines or primary MM cells (1×10^5 in 2 ml) were added to the stroma cultures. The stroma cocultures were incubated at 37° C. in RPMI containing 10% FCS, L-glutamine, and P/S, with or without AGN194310 (1 μM for 5 days), R115866 (1 μM for 5 days), IRX5183 (1 μM for 5 days), or BTZ (2.5 nM for 48 hr).
Clonogenic assays. After treatment, MM cells were collected, washed with PBS, and plated at a density of 5,000 cells/ml in 1 ml of 1.32% methylcellulose supplemented with 30% FBS, 10% BSA, L-glutamine, P/S, and 0.1 mM β-ME. Cells were plated in triplicate in 35-mm culture dishes, incubated at 37° C., and scored for the presence of colonies 14 days later.
A RA-low microenvironment induces BTZ resistance. To determine whether decreased retinoid signaling contributes to BTZ resistance within the BM niche, MM cell lines and MM CD138+ primary cells were incubated with BM stroma for 5 days, followed by BTZ treatment.

The test system of the next experiment is H929 Luc+ cells. As to the kind of experiment: systemic MM xenograft, bioluminescence. In kind it is in vivo, mouse. The following applies: 4 weeks. As for the experimental part: FIG. 6 depicts bioluminescent images of systemic MM xenografts. Following engraftment of H929 Luc+ cells, mice were treated with IRX (n=4), BTZ (n=5), or a combination of both (n=5) for 4 weeks. Data represent the mean±SEM of the fold change in bioluminescence (photons/second) from day 0.
For the systemic MM model, 2×10^6 Luc+/GFP+ H929 cells were injected via the tail vein into 16-week-old male NSG mice. After engraftment, as determined by an exponential increase in bioluminescence, mice were treated with BTZ (0.5 mg/kg i.p.) twice weekly and with IRX (10 mg/kg) once daily. Tumor burden was assessed by bioluminescence, as above.
To test whether retinoids can enhance BTZ activity in MM, a systemic MM xenograft was developed by injecting 2×10^6 H929 luciferase+ (Luc+) cells via the tail vein of non-obese, diabetic, severe combined immunodeficiency IL-2 receptor y-KO (NSG) mice. The animals were randomized to receive IRX, BTZ, or a combination of both, and disease burden was followed weekly by bioluminescence imaging (FIG. 6).

Structures are written as SMILES. Some results are limits rather than exact numbers.

In the case of `CC1(C)CCC(C)(C)c2c1cc(C(=O)Nc1cc(F)c(C(=O)O)c(F)c1)c(O)c2Cl` [IRX5183], the Kd on RARβ and at RARγ was more than 10 µM each time. Moreover, the “Foxp3+ Expression” value came to 4.3% with CD4+ T cells (Blood) and 25% in the experiment with CD4+ T cells (Spleen). For the same molecule, the “effect on stroma-induced BTZ resistance” value in experiment [1] is “overcome”. In the experiment with H929 Luc+ cells (combination of IRX 10 mg/kg daily and BTZ 0.5 mg/kg twice weekly), the “disease burden (bioluminescence)” value is “significant (P<0.01) decrease in disease burden”. Further, in the experiment on H929 Luc+ cells (monotherapy, BTZ 0.5 mg/kg i.p. twice weekly, IRX 10 mg/kg once daily), the “tumor burden (bioluminescence)” value is listed as “decrease in tumor burden compared with untreated mice”.

The values are drawn from patent US11786555B2, “RAR selective agonists in combination with immune modulators for cancer immunotherapy” (IO THERAPEUTICS, INC., priority 2017, dated 2023).
